# From patent US20240041813A1, “VERY-LONG-CHAIN POLYUNSATURATED FATTY ACIDS, ELOVANOID HYDROXYLATED DERIVATIVES, AND METHODS OF USE” (priority 2020, published 2024)
# “Also recorded” adds a separate entry of the source.
# Legend:
# [1] = test system: ACE-2 receptor; assay: ACE-2 protein abundance by Jess capillary western in human alveoli in culture; assay type: cell-based; details: effect dependent on addition of IL-1b
# Source text: The Simple Protein platform Jess allows running a protein mixture in a capillary system that also serves as a probing matrix for the antibodies. This platform obviates the need to transfer the size-separated proteins onto a membrane with the consequent loss of sample. The sample amount that can be run in Jess is several times smaller than that required for Western blots. Therefore, high throughput is facilitated in cell cultures. The antibodies to this protein have been validated in our laboratory.
# c.1.b. Protein abundance using Jess technology. The Simple Protein platform Jess allows running a protein mixture in a capillary electrophoretic system as a probing matrix for the antibodies (we refer to western blot as “Jess WB” here). This platform obviates the need to transfer the size-separated proteins onto a membrane with a potential loss of sample. The sample size run in Jess is several times smaller than that for classical WB. (400 ng protein/capillary column vs. 10 or more μg for classical WB). The proteins we assess will include ACE2, Furin, ADAM17, DPP4, TMPRSS2, protein surfactant D, and Cathepsin L. In addition, senescence and SASP proteins will also be analyzed. […]
# ACE2 Protein abundance using Jess technology. […] Soluble protein concentration was determined by BCA assay (Thermo Fisher Scientific, Cat. 23225) and 0.4 μg used/reaction. […]
# [2] = test system: injured rat cornea; assay: Rat cornea alkali burn: corneal RNA-seq, cytokine storm, NFkB/inflammation, senescence, integrin and protease genes; assay type: in vivo
# Description: The rats were anesthetized by intraperitoneal injection of Ketamine (50-100 mg/kg) plus xylazine (5-10 mg/kg). A 4 mm diameter filter paper soaked in 1 N NaOH was placed on the central cornea of the right eye for 45 seconds, and then the eye was thoroughly washed with […] of saline. After injury, the rats were randomly divided into five treatment groups: vehicle; lipoxin A4 (LXA4) from Cayman Chemical (Ann Arbor, MI, USA); R,R Resolvin D6 isomer (RvD6i), R,R neuroprotection D (NPD1), and elovanoid (ELV)-N32. All lipid solutions were prepared at the final concentration of […] using PBS with the minimal contamination of ethanol by evaporating the ethanol and immediately dissolve the lipids in PBS, then vortex well for 2 min. Topical administration (20 μl) was done 3×/day for 14 days. The experiments were double-blinded with the lipid mediators coded during the whole experiments. At the end of the study, when all data was collected, the code was opened.
# Injured corneas (n=5/condition) were harvested and homogenized with TRIzol (Thermo Fisher Scientific) on ice with a glass Dounce homogenizer. RNA sequencing was performed as described^14. Briefly, after mRNA extraction and determination of purity, 8 ng of total RNA was reverse transcribed, and total cDNAs were amplified using ISPCR primer, and the library was made with the Nextera XT DNA library preparation kit (Illumina, San Diego, CA, USA). The libraries were pooled with the same molarity and sequenced using the NextSeq 500/550 High Output Kit v2 (75 cycles, Illumina). After demultiplexing, RNA-seq data were aligned to the Rattus Norvegicus reference genome (.ensembl.org/pub/release-98/fasta/rattus_norvegicus/dna/) using the Subread package v2.0.1 alignment function39. The BAM files for sequencing data alignment were counted using featureCounts function of Subread tool^40 using the macOS Catalina. The raw count data were subjected to differential gene expression analysis using DESeq2 package for R^41 with the vehicle group as reference. The adjusted p-values were named as the false discover rate (FDR).
# [3] = test system: TMPRSS2; assay: TMPRSS2 mRNA by Taqman qPCR in human alveolar cells; assay type: cell-based; details: in the presence of IL1β
# Description: Real-Time PCR using Taqman probes and SYBR green assay. cDNA was produced using lug of total RNA extracted by RNAeasy (Qiagen, Hilden Germany, cat #74104). The first strand of cDNA was produced using iScript™ Reverse Transcription Supermix for RT-qPCR (BioRad cat #1708840). The quantification of Sirt 1, RNF-146, Bcl2, BcL-xl was performed using SYBRgreen assay with primers designed in house (Table 1) using SsoAdvanced Universal SYBR Green Supermix (Biorad cat #1725270). The quantification of ACE2 and TMPRSS2 mRNA was performed using Taqman probes (Biorad cat #qHsaCEP0051563 & qHsaCIP0028919 respectively) labeled with FAM and standardized using PGK1 probe labeled with HEX (Biorad cat #qHsaCEP0050174).
# [4] = rat cornea, RNA-seq 14 days after injury
smiles,measurement,setting,value
"CC/C=C\CC(O)\C=C/C=C/C=C/C(O)C/C=C\C/C=C\CCCCCCCCCCCCC(=O)O [ELV-N32, (14Z,17Z,20R,21E,23E,25Z,27S,29Z)-20,27-dihydroxydo-triaconta-14,17,21,23,25,29-hexaenoic acid]","expression of the ACE-2 receptor (protein abundance, Jess)",[1],downregulate
same,Furin expression,[2]; cornea injury model (FIG. 57),remarkably decreases
same,"51 injury-upregulated genes (cytokines, SASP, NFkB inflammatory)",[2]; [4],most are inhibited
same,Il6 and Vegfa expression,[2]; [4],reduced
same,integrin gene expression (Itga5 and Itgb 1),[2]; [4],significantly decreased; also recorded: decrease
same,transcriptomic profile in PCA plot relative to control cornea,[2]; [4],nearest to the normal cornea
same,Cdkn2a gene expression (p16INK4a),"[2]; rat cornea, RNA-seq normalized counts, 14 days after injury",decrease
same,TMPRSS2 expression,[3],decreased
